Where a name gives a salt, the structure may show the parent alone.
Experiments:
[1] = Relative stability of hydrate forms, competitive slurry experiments in IPA/water systems; type: physicochemical
From the text: The relative stability between free base Form A, Form B, and Form D was investigated by conducting competitive slurry experiments in isopropyl alcohol (IPA)/water systems at room temperature. […] Further addition of Form A to the experiments verified the result. In systems with αw≥0.37, only Form A was observed after 1 day of stirring at room temperature. Further addition of Form B and Form D to the experiment confirmed the outcome.

[2] = Excipient compatibility, total impurity content of binary mixtures by HPLC; type: physicochemical; conditions: 40° C./75% RH, 8 weeks; for Compatibility with excipients (total impurity content): binary mixtures, open condition; for Risk of chemical stability: with excipients
From the text: Binary mixtures of samples were created by mixing the substance and the excipients (1:10 Compound to Excipients for fillers and 1:1 for all other excipients) using a mortar and pestle and the resultant mixture was accurately weighed and transferred into sample vials. The excipients used were as follows: colloidal silicon dioxide 200, croscarmellose sodium, crosprovidone XL-10, dibasic calcium phosphate (an), hydroxypropyl cellulose, lactose monohydrate, magnesium stearate, mannitol 100SD, MCC PH102, Opadry™ 11, povidone K-30, pregelatinized starch 1500, sodium starch glycolate, and sodium stearyl fumarate. The sample vials were set down at 40° C./75% RH condition for 8 weeks in open condition before analyzing their impurity levels using HPLC.

[3] = Intrinsic dissolution rate and drug in capsule dissolution in FaSSGF and FaSSIF; type: physicochemical
Method: The IDR rate was calculated using the slope of the linear curve divided by the surface area of tablet (0.5 cm^2). […] 0.6 mL liquid was removed with a syringe at each time point and filtered. The concentration of filtrates was analyzed by HPLC.

[4] = Pharmacokinetics after oral capsule administration to dogs pre-treated with pentagastrin or famotidine; type: in vivo, male beagle dogs; conditions: 100 mg/dog, particle size normalized
Method: The substances were filled into Empty HPMC Capsules after correcting for potency and administered to dogs pre-treated with either pentagastrin or famotidine along with 40 mL of water. Pentagastrin enhances gastric secretions whereas famotidine neutralizes gastric sections. Therefore, pentagastrin and famotidine pre-treatments were used to simulate the impact of gastric pH on bioavailability and reduce the variability in gastric pH between dogs.
Plasma samples were collected at pre-defined intervals and analyzed for the concentration of Compound 1. The plasma concentration versus time data was analyzed by non-compartmental approaches using Win Nonlin software program to estimate PK parameters such as Cmax, Tmax, AUC0-t and AUC0-inf.

[5] = Compressibility, tabletability, compatibility and physical stability under compaction; type: physicochemical
Method: The compressibility (i.e., porosity vs compaction pressure), tabletability (i.e., tensile strength vs compaction pressure), and compatibility (i.e. tensile strength vs porosity) of Free Base Form A of Compound 1 was measured.

Row | Form conversion in competitive slurry ([1]; αw=0.13, room temperature) | Compatibility with excipients (total impurity content) [2] | Risk of chemical stability ([2]; open) | Dissolution in gastric media ([3]; 37° C., 50 rpm) | Exposure (plasma AUC) compared with HCl salt [4] | Compatibility (tensile strength vs porosity) [5] | Compressibility (porosity vs compaction pressure) [5] | Tabletability (tensile strength vs compaction pressure) [5] | Loss of crystallinity (XRPD before and after compression) ([5]; high compaction pressures) | SMILES | Conversion rate in competitive slurry ([1]; αw=0.13, compared with higher water activities) | Sensitivity to individual excipients (total impurity content) ([2]; colloidal silicon dioxide and lactose monohydrate, open) | Supersaturation in intestinal fluid ([3]; pH shifted from gastric to intestinal after 30 minutes) | Dissolution rate in intestinal media ([3]; intestinal media, 37° C., 50 rpm)
1 | converted to Form A eventually |  |  |  |  |  |  |  |  | Cn1ncc(-c2ccc3c(=O)[nH]nc(CN)c3c2)c1-c1c(F)c(Cl)cc(OC2CC2)c1C#N [Form B, 2-(4-(4-(aminomethyl)-1-oxo-1,2-dihydrophthalazin-6-yl)-1-methyl-1H-pyrazol-5-yl)-4-chloro-6-cyclopropoxy-3-fluorobenzonitrile] | slightly slower than those at higher water activities |  |  | 
2 |  | good compatibility with excipients | slightly higher | faster dissolution in gastric media | equivalent exposure to HCl salt | good | good | good | No apparent loss of crystallinity | Cn1ncc(-c2ccc3c(=O)[nH]nc(CN)c3c2)c1-c1c(F)c(Cl)cc(OC2CC2)c1C#N [Free Base Form A, 2-(4-(4-(aminomethyl)-1-oxo-1,2-dihydrophthalazin-6-yl)-1-methyl-1H-pyrazol-5-yl)-4-chloro-6-cyclopropoxy-3-fluorobenzonitrile] |  | more sensitive to colloidal silicon dioxide and lactose monohydrate than HCl Form B | able to maintain super saturation in intestinal fluid | 
3 |  | good compatibility with excipients | slightly higher | common ion effect slowing dissolution |  |  |  |  |  | Cn1ncc(-c2ccc3c(=O)[nH]nc(CN)c3c2)c1-c1c(F)c(Cl)cc(OC2CC2)c1C#N [HCl Form B] |  |  |  | slightly faster dissolution rate than Free Base Form A
